Assay results published in publication PMC7156458, “Synthetic biology based construction of biological activity-related library of fungal decalin-containing diterpenoid pyrones” (Nature Communications, 2020).
Read-outs that look alike come from different tables or passages of the source.

Columns and labels:
MCF-7 cells = assay: cell cytotoxic effects against MCF-7 cells (72 h), A490; assay type: cell-based, human; settings: for viability at 0.1 µM / viability at 1 µM / viability at 10 µM: Homo sapiens, MCF7, 72 h, read-out: A490 (control =1) ave; for viability at 0.1 µM / viability at 1 µM / viability at 10 µM / A490 ave: MCF-7, 72 h
Method: !" ' ' '! !" ' ' '! !" ' ' '!!" ' ' '!!" ' ' '!!" ' ' '!!" ' ' '!!" ' ' '! !" ' ' '! !" ' ' '! !" ' ' '! !"#$
( % ) * '! '' '# '+ '$ '( '%
! " # $ %& %% %' %( %) %! %"
!" ' ' '! !" ' ' '!!" ' ' '!!" ' ' '!!" ' ' '!!" ' ' '!!" ' ' '! !" ' ' '! !" ' ' '! !" ' ' '! !" ' ' '! […]
Supplementary Fig. 46. a, Cell cytotoxic effects of DDPs against MCF-7 cells (72 h).
dose dependent cytotoxic effects against MCF-7 cells were tested their inhibitory activity against mammosphere
formation. Compound in blue (16) was also performed mammosphere assay as negative control. Data represent
mean±s.d. from three independent replicate experiments. […]
Source data underlying Supplementary Figure 46a are provided in a Source Data file. […]

l(2)mbn cells = assay: cytotoxicity in Drosophila l(2)mbn cells; assay type: cell-based; settings: for Luminescence Raw2: replicate 2; for Luminescence Raw1: replicate 1; for % viability, viability 1: replicate 1, relative to DMSO 1%; for % viability, viability 2: replicate 2, relative to DMSO 1%
Method: (§1) We screened the DDPs on the Drosophila assay system for cytotoxicity, inhibitory activity of innate immune signalling and insecticidal activity. The cytotoxicity of the DDPs was evaluated using two cell lines, embryonic macrophage-derived DL1 cells[58]–[60] and larval blood cell-derived l(2)mbn cells, and their IC50 values are listed in Supplementary Table 23.

[1] = cytotoxicity in Drosophila l(2)mbn cells; assay type: cell-based; settings: Drosophila
Method: as §1

[2] = 0.1 µM (DMSO 0.002%), control 1.064
[3] = 1 µM (DMSO 0.02%), control 1.104
[4] = 10 µM (DMSO 0.2%), control 1.049
[5] = Drosophila melanogaster, cytotoxicity, average of two replicates, read-out: IC50 Average
[6] = Drosophila melanogaster, cytotoxicity, average±SEM, read-out: IC50
[7] = Drosophila melanogaster, cytotoxicity, replicate 1, read-out: IC50 (1)
[8] = Drosophila melanogaster, cytotoxicity, replicate 2, read-out: IC50 (2)
[9] = cytotoxicity, average of two replicates, read-out: IC50 Average
[10] = cytotoxicity, average±SEM, read-out: IC50
[11] = cytotoxicity, replicate 1, read-out: IC50 (1)
[12] = cytotoxicity, replicate 2, read-out: IC50 (2)
[13] = l(2)mbn cells (larval blood cell-derived), replicate 1, relative to DMSO 1%, read-out: % viability, viability 1
[14] = l(2)mbn cells (larval blood cell-derived), replicate 2, relative to DMSO 1%, read-out: % viability, viability 2
[15] = replicate 1, relative to DMSO 1%, read-out: % viability, viability 1
[16] = replicate 2, relative to DMSO 1%, read-out: % viability, viability 2

Structure (SMILES) | viability at 0.1 µM (MCF-7 cells; 0.1 µM (DMSO 0.002%)) [%] | viability at 1 µM (MCF-7 cells; 1 µM (DMSO 0.02%)) [%] | viability at 10 µM (MCF-7 cells; 10 µM (DMSO 0.2%)) [%] | A490 ave (MCF-7 cells; [2]) | A490 ave (MCF-7 cells; [3]) | A490 ave (MCF-7 cells; [4]) | Luminescence Raw2 (l(2)mbn cells; 0.2 µM) | Luminescence Raw1 (l(2)mbn cells; 1 µM) | Luminescence Raw1 (l(2)mbn cells; 0.04 µM) | Luminescence Raw2 (l(2)mbn cells; 0.04 µM) | Luminescence Raw1 (l(2)mbn cells; 0.2 µM) | Luminescence Raw2 (l(2)mbn cells; 1 µM) | Luminescence Raw1 (l(2)mbn cells; 4 µM) | % viability, viability 1 (l(2)mbn cells; 4 µM) [%] | Luminescence Raw2 (l(2)mbn cells; 4 µM) | % viability, viability 2 (l(2)mbn cells; 4 µM) [%] | Luminescence Raw1 (l(2)mbn cells; 10 µM) | Luminescence Raw2 (l(2)mbn cells; 10 µM) | Luminescence Raw1 (l(2)mbn cells; 20 µM) | Luminescence Raw2 (l(2)mbn cells; 20 µM) | other results
C=C1CC[C@@H]2[C@](C)(CC[C@H]3O[C@H](C=C(C)C)C[C@@]23C)[C@@H]1Cc1c(OC)oc(CO)c(C(=O)OC)c1=O [Compound 21] | 114 | 118 | 103 | 1.213 | 1.298 | 1.083 | 2750409 | 2523535 | – | – | – | – | – | – | – | – | – | – | – | – | Luminescence Raw1 (l(2)mbn cells; 0.4 µM): 2719029; Luminescence Raw2 (l(2)mbn cells; 0.4 µM): 2813892; Luminescence Raw1 (l(2)mbn cells; 0.8 µM): 2929318; Luminescence Raw2 (l(2)mbn cells; 0.8 µM): 2922825; IC50 (l(2)mbn cells; [5]): 2660 nM; IC50 (l(2)mbn cells; [6]): 2660 ± 220 nM; IC50 (l(2)mbn cells; [7]): 2440 nM; IC50 (l(2)mbn cells; [8]): 2880 nM
C=C1CCC2C(C)(CCC=C(C)C)C(O)CCC2(C)C1Cc1c(O)c(C)c(C)oc1=O (stereo not drawn) [Compound 4] | – | – | – | – | – | – | 5444207 | 5427969 | 5839335 | 5201728 | 5720253 | 5886607 | 5612720 | 89.3854 | 6637959 | 105.713 | 900951 | 1318179 | 296971 | 325456 | % viability, viability 1 (l(2)mbn cells; 0.04 µM): 92.9944%; % viability, viability 2 (l(2)mbn cells; 0.04 µM): 82.8402%; % viability, viability 1 (l(2)mbn cells; 0.2 µM): 91.0979%; % viability, viability 2 (l(2)mbn cells; 0.2 µM): 86.7018%; % viability, viability 1 (l(2)mbn cells; 1 µM): 86.4432%; % viability, viability 2 (l(2)mbn cells; 1 µM): 93.7472%; % viability, viability 1 (l(2)mbn cells; 10 µM): 14.3481%; % viability, viability 2 (l(2)mbn cells; 10 µM): 20.9927%; % viability, viability 1 (l(2)mbn cells; 20 µM): 4.729%; % viability, viability 2 (l(2)mbn cells; 20 µM): 5.183%; IC50 (l(2)mbn cells; [9]): 6440 nM; IC50 (l(2)mbn cells; [10]): 6440 ± 940 nM; IC50 (l(2)mbn cells; [11]): 5500 nM; IC50 (l(2)mbn cells; [12]): 7390 nM
C=C1CCC2C(C)(CCC=C(C)C)C(O)CCC2(C)C1Cc1c(O)c(C)c(C)oc1=O (stereo not drawn) [Compound 9, higginsianin B] | 53.1 | 95.5 | 27.3 | 0.565 | 1.055 | 0.286 | 5991618 | 5334874 | 5700406 | 5730357 | 5787371 | 5292296 | 375575 | 5.981 | 295889 | 4.712 | 141567 | 144091 | 140485 | 188801 | viability at 0.04 µM [1, 13]: 90.8%; viability at 0.04 µM [1, 14]: 91.3%; viability at 0.2 µM [1, 13]: 92.2%; viability at 0.2 µM [1, 14]: 95.4%; viability at 1 µM [1, 13]: 85%; viability at 1 µM [1, 14]: 84.3%; viability at 20 µM [1, 14]: 3.01%; % viability, viability 1 (l(2)mbn cells; 10 µM): 2.255%; % viability, viability 2 (l(2)mbn cells; 10 µM): 2.295%; % viability, viability 1 (l(2)mbn cells; 20 µM): 2.2373%; IC50 (l(2)mbn cells; [9]): 1540 nM; IC50 (l(2)mbn cells; [10]): 1540 ± 10 nM; IC50 (l(2)mbn cells; [11]): 1540 nM; IC50 (l(2)mbn cells; [12]): 1540 nM
C=C1CCC2C(C)(CCC=C(C)C)C(O)CCC2(C)C1Cc1c(OC)oc(C)c(C)c1=O (stereo not drawn) [Compound 11] | 92.2 | 34.3 | 21.4 | 0.981 | 0.379 | 0.224 | 4449089 | 2597064 | 4909467 | 3629794 | 5752008 | 1297263 | 133995 | 2.134 | 142288 | 2.266 | 107674 | 99742 | 126784 | 170772 | cytotoxicity against the bulk of MCF-7 cells (MCF-7 cells): dose-dependent cytotoxicity; viability at 0.04 µM [1, 15]: 78.2%; viability at 0.2 µM [1, 15]: 91.6%; viability at 0.2 µM [1, 16]: 70.9%; viability at 20 µM [1, 15]: 2.02%; viability at 20 µM [1, 16]: 2.72%; % viability, viability 2 (l(2)mbn cells; 0.04 µM): 57.8063%; % viability, viability 1 (l(2)mbn cells; 1 µM): 41.3596%; % viability, viability 2 (l(2)mbn cells; 1 µM): 20.6596%; % viability, viability 1 (l(2)mbn cells; 10 µM): 1.715%; % viability, viability 2 (l(2)mbn cells; 10 µM): 1.588%; IC50 (l(2)mbn cells; cytotoxicity, average±SEM): 470 ± 210 nM; IC50 (l(2)mbn cells; read-out: IC50 (1), cytotoxicity, replicate 1): 681 nM; IC50 (l(2)mbn cells; read-out: IC50 (2), cytotoxicity, replicate 2): 259 nM; IC50 (l(2)mbn cells; read-out: IC50 Average, cytotoxicity, average of two replicates): 470 nM
C=C1CC[C@H]2[C@]3(C)C[C@H](C=C(C)C)O[C@H]3CC[C@]2(C)[C@@H]1Cc1c(OC)oc(C)c(C)c1=O [Compound 24] | 64 | 76.3 | 12.6 | 0.680 | 0.843 | 0.132 | 3346307 | 3332960 | 3470038 | 2834452 | 3507915 | 3138530 | 267094 | – | 217335 | – | 164693 | 160006 | 170462 | 154958 | viability at 0.04 µM [1, 13]: 135%; viability at 0.04 µM [1, 14]: 110%; viability at 0.2 µM [1, 13]: 137%; viability at 0.2 µM [1, 14]: 130%; viability at 1 µM [1, 13]: 130%; viability at 1 µM [1, 14]: 122%; viability at 4 µM [1, 13]: 10.4%; viability at 4 µM [1, 14]: 8.47%; viability at 10 µM [1, 13]: 6.42%; viability at 10 µM [1, 14]: 6.23%; viability at 20 µM [1, 13]: 6.64%; viability at 20 µM [1, 14]: 6.04%; IC50 (l(2)mbn cells; [5]): 3040 nM; IC50 (l(2)mbn cells; [6]): 3040 ± 160 nM; IC50 (l(2)mbn cells; [7]): 3200 nM; IC50 (l(2)mbn cells; [8]): 2880 nM
